According to patent US20250250286A1, “FUSED PYRIMIDINE DERIVATIVES AS KRAS ONCOPROTEIN INHIBITORS” (BETA PHARMA, INC., priority 2021, published 2025):
Where a name gives a salt, the structure may show the parent alone.

Biological target: T1, KRAS G12D (Homo sapiens, UniProt P01116, G12D)
T1 construct: Recombinant human KRAS G12D (aa 2-169, expressed in E. coli); His-tag (TEV cleavable) (N); purchased Reaction Biology Corporation (RBC) SOS1: RBC cat #MSC-11-502; KRAS G12D: not given; host or cells: E. coli
Experiment: KRAS G12D/SOS1 Nucleotide Exchange Assay (SOS1-mediated Bodipy-GDP to GTP exchange)
Format: biochemical
Settings: rate constant method (plateau = 0), Bodipy-GDP/KRAS G12D as substrate, 0.5% DMSO, 30 min pre-incubation at RT
Experimental: The compound pre-incubation time was 30 min at RT and the curve fits were performed when the activities at the highest concentration of compounds were less than 65%.
Reaction Buffer: 40 mM HEPES 7.4, 10 mM MgCl2, 1 mM DTT 0.002% Triton ×100, 0.5% DMSO.
KRAS is pre-loaded with a 5-fold excess of Bodipy-GDP. The excess Bodipy-GDP is separated from loaded protein using a spin desalting column.
• 1. Deliver 10 μL of 1.5× KRAS solution in freshly prepared reaction buffer to reaction wells. • 2. Deliver compounds in 100% DMSO into buffer using acoustic technology (Echo550; nanoliter range). • 3. Incubate compounds with KRAS for 30 minutes at room temperature. • 4. Prepare 3× (SOS1+GTP) solution in reaction buffer. • 5. Deliver 5 μL of SOS1+GTP solution into reactions wells (deliver GTP only to column 1 for no SOS1 control). • 6.
Data Analysis: The fluorescence data was normalized using the equation below and fitted to “one phase exponential decay” equation using GraphPad prism software. The plateau was fixed to zero (use for non-covalent inhibitors) and rate ×1000 was used to calculate the IC50 values.
[formula] • where Yraw is defined as fluorescence at time t, Ao is the average initial fluorescence with no SOS1, and M is the minimum fluorescence at the end of the reaction at the maximum SOS1.
The background subtracted signals (no SOS1 protein wells were used as background) were converted to % activity relative to DMSO controls. Data was analyzed using GraphPad Prism 4 with “sigmoidal dose-response (variable slope)”; 4 parameters with Hill Slope. The constraints were bottom (constant equal to 0) and top (must be less than 120).

T1 sequence (P01116 2-169 G12D): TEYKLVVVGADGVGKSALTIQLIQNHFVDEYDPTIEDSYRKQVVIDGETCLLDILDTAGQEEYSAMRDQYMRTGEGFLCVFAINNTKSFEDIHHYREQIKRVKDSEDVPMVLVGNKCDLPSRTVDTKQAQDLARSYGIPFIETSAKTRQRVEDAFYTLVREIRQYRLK

Going from `Clc1cccc2cccc(-c3cnc4c(N5C[C@H]6CC[C@@H](C5)N6)nc(OCC56CCCN5CCC6)nc4c3)c12` [Example 1, 4-((1R,5S)-3,8-Diazabicyclo[3.2.1]octan-3-yl)-7-(8-chloronaphthalen-1-yl)-2-((tetrahydro-1H-pyrrolizin-7a(5H)-yl)methoxy)pyrido[3,2-d]pyrimidine hydrochloride (1:3)] to `Clc1cccc2cccc(-c3ccc4c(N5C[C@H]6CC[C@@H](C5)N6)nc(OCC56CCCN5CCC6)nc4n3)c12` [Example 4, 4-((1R,5S)-3,8-diazabicyclo[3.2.1]octan-3-yl)-7-(8-chloronaphthalen-1-yl)-2-((tetrahydro-1H-pyrrolizin-7a(5H)-yl)methoxy)pyrido[2,3-d]pyrimidine], the IC50 rises from 0.61 µM to 8.6 µM (14-fold).

`Oc1cc(-c2cnc3c(N4C[C@H]5CC[C@@H](C4)N5)nc(OCC45CCCN4CCC5)nc3c2)c2ccccc2c1` [Example 2, 4-(4-((1R,5S)-3,8-Diazabicyclo[3.2.1]octan-3-yl)-2-((tetrahydro-1H-pyrrolizin-7a(5H)-yl)methoxy)pyrido[3,2-d]pyrimidin-7-yl)naphthalen-2-ol] and `C#Cc1c(F)ccc2cc(O)cc(-c3cnc4c(N5C[C@H]6CC[C@@H](C5)N6)nc(OC[C@@]56CCCN5C[C@H](F)C6)nc4c3)c12` [Example 5, 4-(4-((1R,5S)-3,8-Diazabicyclo[3.2.1]octan-3-yl)-2-(((2R,7aS)-2-fluorotetrahydro-1H-pyrrolizin-7a(5H)-yl)methoxy)pyrido[3,2-d]pyrimidin-7-yl)-5-ethynyl-6-fluoronaphthalen-2-ol] are within 1.5-fold of each other in IC50: 0.035 ± 0.0057 µM for the first, 0.028 µM for the second.

With `CN1CCC[C@H]1COc1nc(N2C[C@H]3CC[C@@H](C2)N3)c2ccc(-c3cccc4cccc(Cl)c34)nc2n1` [Example 3, 4-((1R,5S)-3,8-Diazabicyclo[3.2.1]octan-3-yl)-7-(8-chloronaphthalen-1-yl)-2-(((S)-1-methylpyrrolidin-2-yl)methoxy)pyrido[2,3-d]pyrimidine] the IC50 was over 10 µM.
